Laboratory results as given in paper PMC10861593, “Kisspeptin-10 binding to Gpr54 in osteoclasts prevents bone loss by activating Dusp18-mediated dephosphorylation of Src” (Nature Communications, 2024).
Blank lines part the entries; values can stand above or below the molecule they belong to. Where a SMILES comes first, the peptide text is derived from it.

Key:
DUSP18 [1] = experiment: GST pull-down with WCL of 293T cells transfected with DUSP18; format: binding; conditions: WCL of 293T cells transfected with DUSP18-HA
Description: Beads were analyzed by phosphatase activity assay (a), mass spectrometry assay (b), IB analysis (c) and quantification of protein levels (d). e, f Protein co-localization was analyzed by IF staining in primary pre-osteoclast with 10 nM Kp-10 treatment for 20 min. […] Scale bar, 50 µm. g, h binding affinity was measured by SPR binding analysis. […] Data represent means ± SEM. P values were determined by one-way ANOVA analysis (a, d, j, l) or two-tailed Student’s t-test (f). Representative results were obtained from at least three independent experiments. Source data are provided as a Source Data file.
Supplementary Fig. 6 a, b IB and quantification of protein levels analysis. […] Error bars are ± SEM. P-values were determined by two-tailed Student’s t-test (b, e) or by one-way ANOVA analysis (h, j). *P <0.05, **P <0.01, ***P <0.001, ****P <0.0001. Representative results were observed from at least three independent experiments. Source data are provided as a Source Data file.

Src = experiment: GST pull-down with WCL of 293T cells transfected with HA-Src; format: binding
Source text: Fig. 2 GPR54 recruited Src via the PR motif in GPR54 C-Terminus. a Sequence analysis of the PR motif in multiple species of GPR54 CT. b SH3 domain protein-binding array using the TranSignal™ SH3 Domain Array kit. The principal Src binding region is circled in red evident (1 Src; 2 the dilution of Src in half). c SPR binding-affinity measurement of Src and GPR54 CT. […] GPR54 CT bound with the SH3 domain of Src mainly via the key residues including R336, P339 and P342. e–h IB analysis of total samples and GST pull-downs using GST proteins including GST, GST-GPR54 CT, GST-GPR54 CT m1 (R336A&P339A), GST-GPR54 CT m2 (delta 339–344) incubated separately with WCL of 293 T cells transfected with HA-Src (e) and quantification of protein levels (f), IB analysis of WCL and anti-GPR54 IP assays derived from RAW264.7 cells induced by Kp-10 for 20 min (g) and quantification of protein levels (h). i, j IF staining was carried out using pre-osteoclasts differentiated from BMMs with M-CSF (10 ng/ml) and RANKL (50 ng/ml) stimulation for 2 days, then treated with 10 nM Kp-10 for 20 min. Representative images of endogenous Gpr54 and Src were shown by total internal reflection fluorescence (TIRF) microscopy (i), and the Mander’s overlap coefficient (MOC) as a measure of colocalization in cells from multiple images taken randomly (j). Scale bar, 50 μm. Data represent means ± SEM. […] These are best readings. […]

Dusp18 knockout mice = experiment: bone and osteoclast parameters in Dusp18 knockout mice; format: in vivo, mouse; conditions: TRAP staining and osteoclast parameters, femur
Source text: Data represent means ± SEM. […] Representative results were obtained from at least three independent experiments. Source data are provided as a Source Data file.

DUSP18 [2] = target: T1, DUSP18 (Homo sapiens, UniProt Q8NEJ0); experiment: SPR (Biacore T200) binding to DUSP18
T1 construct: For purification of full-length WT human DUSP18 and DUSP18 (C104S) proteins; His (N); made in house; host or cells: E. coli
T1 sequence (Q8NEJ0 1-188): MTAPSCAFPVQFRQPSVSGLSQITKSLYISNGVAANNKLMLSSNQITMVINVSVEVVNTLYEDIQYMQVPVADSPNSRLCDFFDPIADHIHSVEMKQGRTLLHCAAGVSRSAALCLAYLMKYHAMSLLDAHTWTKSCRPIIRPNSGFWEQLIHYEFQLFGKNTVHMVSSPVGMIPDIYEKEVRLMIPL
Description: SPR was determined using a Biacore T200 instrument (GE). SRC or DUSP18 protein was immobilized on the sensor chip (CM5) using the amine-coupling method according to standard protocols. Immobilization was performed according to the manufacturer’s recommendations. SRC protein (64 ug/mL, pH5.0) or DUSP18 protein (25 ug/mL, pH7.4) was diluted in 10 mM acetate buffer or 10 mM PBS buffer. Sh2-sh3 (100 ug/mL, pH5.0) was diluted in 10 mM acetate buffer. The kinetics and affinity assay were examined at 25 °C at a flow rate of 30 µl/minute using PBS buffer with 0.05% Tween-20. The KD values were calculated with the kinetics analysis (1:1 model) of Biacore T200 evaluation software. The interaction of GPR54 CT, peptides of PR motifs with Src or DUSP18, and the interaction of DUSP18 and Src were analyzed respectively by regeneration with pH 2.0 Gly-HCl buffer.
The C terminus of human GPR54 (H329- L398) and mouse Gpr54 (R331- L396) cDNAs were subcloned into a pGEX-4T2 vector. For purification of full-length WT human DUSP18 and DUSP18 (C104S) proteins, DUSP18 was cloned into pMCSG7 vector. […]

GPR54 / Src interaction = experiment: Co-IP: interaction of GPR54 with Src in transfected 293T cells; format: cell-based, human; conditions: inhibitor 1 h (U73122 10 µM, Staurosporine 0.25 µM, LY3214996 10 µM, KN-93 10 µM, Saracatinib 10 µM), then 10 nM Kp-10 20 min
Description: Data represent means ± SEM. P values were determined by one-way ANOVA analysis (b, c, e, g, i, k). Representative results were obtained from at least three independent experiments. Source data are provided as a Source Data file.
Whole-cell proteins were extracted using 1x RIPA buffer (25 mM Tris, pH7.5, 150 mM NaCl, 0.5% Sodium deoxycholate, 1% Triton-X-100) supplemented with protease inhibitors (Complete Mini, Roche) and phosphatase inhibitors (phosphatase inhibitor cocktail set I and II, Calbiochem). Immunoprecipitation and immunoblotting with indicated antibodies were performed as described in Supplementary Table 1. Image Jsoftware (V1.52) was used for quantification analysis. Uncropped and unprocessed blots are presented in the Supplementary Information file.
Error bars are ± SEM. […] Source data are provided as a Source Data file.

[3] = target: T2, His-SRC protein, Src (G85-L536) (human, UniProt P12931 85-536); experiment: SPR; Biacore T200, SRC protein immobilised on CM5 by amine coupling (64 ug/mL, pH 5.0, acetate); 25 °C, 30 µl/minute, PBS with 0.05% Tween-20; kinetics analysis, 1:1 model; conditions: both partners purified
T2 construct: human Src, G85-L536, in pFastBac HT B; In the SPR it is called 'SRC protein'; removal of the tag is not mentioned; source: Sf9 (Bac-to-Bac baculovirus), purified; not shown: His6, N-terminal, kept

Molecule: R336A&P339A mutant of human GPR54 CT: GST-GPR54 CT m1 (R336A&P339A)
- binding of DUSP18 (GST pull-down) (DUSP18 [1]): dampened its interaction with DUSP18
- binding of Src (GST pull-down) (Src): dramatically dampened the interaction of Src with GPR54 CT

Molecule: O=C(Cc1ccc(-c2ccc(OCCN3CCOCC3)cc2)cn1)NCc1ccccc1 [KX2-391]
- rescue of Dusp18 deletion induced osteoclast activity (Dusp18 knockout mice): efficiently rescued

- kon (DUSP18 [2]; printed in the picture of the figure, read-out: ka): 1130 ± 9500 M⁻¹ s⁻¹
Molecule: CC(C)[C@H](NC(=O)[C@@H](N)CCCNC(=N)N)C(=O)N[C@@H](CS)C(=O)N1CCC[C@H]1C(=O)N[C@@H](CS)C(=O)N[C@@H](CS)C(=O)N[C@@H](CCCNC(=N)N)C(=O)O [Gpr54^336–342] (H-RVCPCCR-OH; N-terminus and C-terminus assumed)

Molecule: COc1ccc2c(c1)CC[C@@H]1[C@@H]2CC[C@]2(C)[C@@H](NCCCCCCN3C(=O)C=CC3=O)CC[C@@H]12 [U73122]
- effect on Kp-10 induced interaction of GPR54 with Src (GPR54 / Src interaction): not by the inhibitors

- SPR curve when titrated with Dusp18 (DUSP18 [2]; synthesized mouse Gpr54 peptide): generated an unfitted SPR curve
Molecule: Gpr54^339–344: right-shifted mouse Gpr54 peptide which corresponds to the PxxRxR motif (PCCRQR)

Molecule: COc1ccc(S(=O)(=O)N(CCO)c2ccccc2CN(C)C/C=C/c2ccc(Cl)cc2)cc1 [KN-93]
- effect on Kp-10 induced interaction of GPR54 with Src (GPR54 / Src interaction): not by the inhibitors

- Kd [3]: 4.24 µM
B1: peptide of GPR54^336–356 (peptide, UniProt Q969F8 336-356, looked up)
peptide: RVCPCAPRRPRRPRRPGPSDP
notes: human GPR54 (KiSS1R), residues 336-356 of the PR motif; source: synthetic peptide (GL Biochem)

B2: △339–344 (deletion sign: △) mutant of GPR54 CT: GST-GPR54 CT m2 (delta 339–344) (protein)
chain: HFRQAFRRVCPRRPRRPGPSDPAAPHAELLRLGSHPAPARAQKPGSSGLAARGLCVLGEDNAPL
modifications: left off: GST, N-terminal, kept
- binding of DUSP18 (GST pull-down) (DUSP18 [1]): abolished the binding with DUSP18
- binding of Src (GST pull-down) (Src): completely abolished the binding of Src with GPR54 CT

- Kd [3]: 28.3 µM
B3: GPR54^333–344 (N-terminal half of the PR motif) (peptide, UniProt Q969F8 333-344, looked up)
peptide: AFRRVCPCAPRR
notes: source: synthetic peptide (GL Biochem)
